Here are results for nine compounds from patent publication US20020192736A1, “Assay of peroxidase activity” (Pierce Chemical Company, priority 2001, published 2002).

The target of assay [1] is horseradish peroxidase labeled streptavidin (SA-HRP) (Armoracia rusticana, UniProt P00433). Briefly: Dot blot assay on nitrocellulose membrane, film densitometry (relative intensity). The class given is biochemical.
The target of another assay is T1, B-HRP (Armoracia rusticana, UniProt P00433).
T1 sequence (P00433 31-338): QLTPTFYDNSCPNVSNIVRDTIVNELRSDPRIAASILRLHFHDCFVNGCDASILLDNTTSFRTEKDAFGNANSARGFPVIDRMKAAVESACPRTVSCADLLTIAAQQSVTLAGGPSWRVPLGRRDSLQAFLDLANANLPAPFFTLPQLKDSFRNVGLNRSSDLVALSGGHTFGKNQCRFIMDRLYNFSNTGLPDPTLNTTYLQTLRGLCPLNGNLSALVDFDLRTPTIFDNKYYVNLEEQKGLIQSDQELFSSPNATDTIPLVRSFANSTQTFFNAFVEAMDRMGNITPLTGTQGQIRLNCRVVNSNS
As to the kind of experiment: Dot blot assay with B-HRP, film densitometry. The conditions noted are these: for Net Relative Intensity at 0.98 pg B-HRP / Net Relative Intensity at 3.9 pg B-HRP / Net Relative Intensity at 62.5 pg B-HRP / Net Relative Intensity at 250 pg B-HRP: […] Azine Enhancer, 5 mM Sodium Luminol.

In another assay the test system is oxidized peroxidase. Briefly: Poisoning of the chemiluminescent system. The class given is biochemical. Conditions: azine with hydrogen atom bonded to the ring nitrogen. As to the method: The contaminant has been identified as a reducing azine species wherein the azine is capable of donating an electron or otherwise reacting with oxidized peroxidase (or peroxidase equivalent). […] This characterization has been made both by theoretic analysis, chemical analysis to determine the presence of the 10=H species, and by reconstruction experiments wherein the “poisoning azine” was added to highly purified azine compositions in order to quantitate the poisoning effects, and to establish the preferred purity of the azine enhancers. […] Concentrations or absolute amounts of a target analyte, which are one-tenth the minimum detectable by other systems can be detected in preferred systems of the invention. […]
This species is a non-enhancing oxidized species of […]. […] If a thiazine with a hydrogen in the 10-yl position is proven to be a non-poisoning species (by its inability to readily react with oxidized peroxidase at room temperature), its presence in or absence from the solution is inconsequential. […] By describing these compounds as inert or not readily reactive with oxidized peroxidase, the basis for the consideration of these terms is visible effects upon luminescence in a peroxidase system. […]

Where [2] appears, read: 50 μM Azine Enhancer, 1 mM Sodium Luminol.
Where [3] appears, read: […] Azine Enhancer, 5 mM Sodium Luminol.
Where [4] appears, read: 20 pg SA-HRP, enhancer concentrations as in row ([…] 1c; 52 μM 1c; 52 μM 1b; 13.5 μM 3).
Where [5] appears, read: 30 minute reexposure, working solutions: […] 1c, 52 μM 1c, 52 μM 1b, 13.5 μM 3, 52 μM 1b + 13.5 μM 3.

“And” between values parts separate entries of the source, which are not always exact repeats. Identical values can stand only once. Like-named read-outs stand apart in the source and are kept apart here.

Sequence of horseradish peroxidase labeled streptavidin (SA-HRP) (P22629 25-183 partner, one chain of several): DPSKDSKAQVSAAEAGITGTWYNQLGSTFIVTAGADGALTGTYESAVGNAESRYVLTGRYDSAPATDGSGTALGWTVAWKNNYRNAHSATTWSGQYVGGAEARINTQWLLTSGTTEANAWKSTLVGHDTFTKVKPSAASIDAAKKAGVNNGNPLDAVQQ

“2-chloro-10 (3 trimethyl amino propyl)-phenothiazonan bromide [Azine Enhancer 1d]”: the “Net Relative Intensity at 1000 pg SA-HRP” value in assay [1] is 1,106,656 and 1,538,600. Also, on B-HRP, the “Net Relative Intensity at 0.98 pg B-HRP” value is recorded as 0, the “Net Relative Intensity at 3.9 pg B-HRP” value turned out to be 0, the “Net Relative Intensity at 62.5 pg B-HRP” value came to 1.70 and the “Net Relative Intensity at 250 pg B-HRP” value turned out to be 15.63.
`CN1c2ccccc2Sc2ccccc21` [Azine Enhancer 1b, N-Methylphenothiazine]: in assay [1], the “Net Relative Intensity at 10 pg SA-HRP” value came to 0, the “Net Relative Intensity at 100 pg SA-HRP” value is given as 0, the “Relative Intensity 2 pg SA-HRP” value was determined as 0 and the “Relative Intensity 5 pg SA-HRP” value was determined as 0. In addition, in assay [1], the “Relative Intensity 20 pg SA-HRP” value is on record as 573,864, the “Relative Intensity 1 minute” value was 457,800, the “Relative Intensity 5 minutes” value is on record as 628,408 and the “Relative Intensity 30 minutes” value was 573,864. In assay [1], the “Relative Intensity 1 hours” value is listed as 502,376 and the “Relative Intensity 24 hours” value is 0.
As to `O=C(O)CCCN1c2ccccc2Sc2ccccc21` [Azine Enhancer 1e], in assay [1] (setting [2]), the “Net Relative Intensity at 10 pg SA-HRP” value is 1,416,056, the “Net Relative Intensity at 100 pg SA-HRP” value is reported as 4,351,240 and the “Net Relative Intensity at 1000 pg SA-HRP” value was 9,599,880. In assay [1] (setting [3]), the “Net Relative Intensity at 10 pg SA-HRP” value is listed as 432,352, the “Net Relative Intensity at 100 pg SA-HRP” value is 3,021,440 and the “Net Relative Intensity at 1000 pg SA-HRP” value is 8,706,320.
As to `O=S(=O)([O-])CCCCN1c2ccccc2Sc2ccccc21.[Na+]` [Azine Enhancer 1f], on B-HRP, the “Net Relative Intensity at 0.98 pg B-HRP” value came out at 12.05, the “Net Relative Intensity at 3.9 pg B-HRP” value came out at 28.77, the “Net Relative Intensity at 62.5 pg B-HRP” value worked out at 91.44 and the “Net Relative Intensity at 250 pg B-HRP” value stood at 151.53.
For `CC(CN1c2ccccc2Sc2ccccc21)C[N+](C)(C)C.[Cl-]` (stereo not drawn) [Azine Enhancer 1g], in that order: 0, 0, 2.16 and 17.92.
For the compound `O=S(=O)([O-])CCCCN1c2ccccc2Sc2ccc(Cl)cc21.[Na+]` [Azine Enhancer 1h], at B-HRP, the “Net Relative Intensity at 0.98 pg B-HRP” value is reported as 0.20, the “Net Relative Intensity at 3.9 pg B-HRP” value came to 0.55, the “Net Relative Intensity at 62.5 pg B-HRP” value is recorded as 44.09 and the “Net Relative Intensity at 250 pg B-HRP” value was found to be 75.58.
For the compound `c1ccc2c(c1)Nc1ccccc1S2` [Azine Poison 1a, phenothiazine], at B-HRP, the “Background RI at 0 pg of B-HRP” value was 7.74 and 6.15 and 6.01 and 7.24; the “Relative Intensity at 250 pg of B-HRP” value is 180.38 and 209.39 and 165.28.
As to `O=C1C=CC(=Nc2ccc(O)cc2)C=C1` [Phenolic Enhancer 3, Phenolindophenol/indophenol], in assay [1] (setting [4]), the “Relative Intensity 1 minute” value is 747,888, the “Relative Intensity 5 minutes” value is 707,432, the “Relative Intensity 30 minutes” value is reported as 598,082 and the “Relative Intensity 1 hours” value was 492,016. In assay [1] (setting [4]), the “Relative Intensity 2 hours” value is recorded as 274,888 and the “Relative Intensity 24 hours” value is 0. In addition, in assay [1] (setting [5]), the “Relative Intensity 2 pg SA-HRP” value is 0, the “Relative Intensity 5 pg SA-HRP” value is on record as 106,776 and the “Relative Intensity 20 pg SA-HRP” value was 598,072.
With `[O-][O+]1c2ccccc2Nc2ccccc21` [phenoxazine-5-oxide], the “poisoning of the chemiluminescent system” value in the assay with oxidized peroxidase is reported as “does not poison the system”.
